The values that follow come from US9815796B2 (Merck Sharp & Dohme Corp., priority 2013, dated 2017).

Where two headings read alike, the source gives them in different places.

For one experiment, the target named is Rhesus PDE2A3 (Macaca mulatta, UniProt B3VTJ2). Put plainly: PDE2 fluorescence polarization (IMAP FP) inhibition assay, rhesus enzyme. It counts as biochemical, rhesus macaque. An outline of the steps:
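Rhesus PDE2A3 came from lysate of transiently transfected AD293 cells, diluted to give 20% substrate conversion. Substrate was 50 nM FAM-cAMP with 1 uM cGMP activator in Tris pH 7.2/MgCl2 buffer, run 60 min at room temperature over 10-point 3-fold dilutions in 1% DMSO. Read-out was IMAP fluorescence polarization (mP) after ≥1 h binding.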
(In fluorescence polarisation assays a small probe gives low polarisation when free and higher when bound to something large.)

For the next experiment, the target named is human PDE2A1 (Homo sapiens (Human), UniProt O00408). Put plainly: IMAP FP PDE selectivity panel, human PDE2A1. It counts as biochemical. An outline of the steps:
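GST-tagged human PDE2A1 expressed in insect cells, run at room temperature for 60 min with 50 nM FAM-cAMP containing 1000 nM cGMP, pH 7.2 Tris/MgCl2 buffer. IMAP fluorescence polarization read after binding step.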

The mark [1] stands for this setting: Rhesus PDE2, Lab A, read-out: Rhesus PDE2 Ki (nM) - Lab A.
[2] abbreviates: Human PDE2, Lab A, read-out: Human PDE2 Ki (nM) - Lab A.
Where [3] appears, read: Rhesus PDE2, Lab B, read-out: Rhesus PDE2 Ki (nM) - Lab B.
The mark [4] stands for this setting: Human PDE2, Lab B, read-out: Human PDE2 Ki (nM) - Lab B.

Rhesus PDE2A3, sequence (B3VTJ2 1-941): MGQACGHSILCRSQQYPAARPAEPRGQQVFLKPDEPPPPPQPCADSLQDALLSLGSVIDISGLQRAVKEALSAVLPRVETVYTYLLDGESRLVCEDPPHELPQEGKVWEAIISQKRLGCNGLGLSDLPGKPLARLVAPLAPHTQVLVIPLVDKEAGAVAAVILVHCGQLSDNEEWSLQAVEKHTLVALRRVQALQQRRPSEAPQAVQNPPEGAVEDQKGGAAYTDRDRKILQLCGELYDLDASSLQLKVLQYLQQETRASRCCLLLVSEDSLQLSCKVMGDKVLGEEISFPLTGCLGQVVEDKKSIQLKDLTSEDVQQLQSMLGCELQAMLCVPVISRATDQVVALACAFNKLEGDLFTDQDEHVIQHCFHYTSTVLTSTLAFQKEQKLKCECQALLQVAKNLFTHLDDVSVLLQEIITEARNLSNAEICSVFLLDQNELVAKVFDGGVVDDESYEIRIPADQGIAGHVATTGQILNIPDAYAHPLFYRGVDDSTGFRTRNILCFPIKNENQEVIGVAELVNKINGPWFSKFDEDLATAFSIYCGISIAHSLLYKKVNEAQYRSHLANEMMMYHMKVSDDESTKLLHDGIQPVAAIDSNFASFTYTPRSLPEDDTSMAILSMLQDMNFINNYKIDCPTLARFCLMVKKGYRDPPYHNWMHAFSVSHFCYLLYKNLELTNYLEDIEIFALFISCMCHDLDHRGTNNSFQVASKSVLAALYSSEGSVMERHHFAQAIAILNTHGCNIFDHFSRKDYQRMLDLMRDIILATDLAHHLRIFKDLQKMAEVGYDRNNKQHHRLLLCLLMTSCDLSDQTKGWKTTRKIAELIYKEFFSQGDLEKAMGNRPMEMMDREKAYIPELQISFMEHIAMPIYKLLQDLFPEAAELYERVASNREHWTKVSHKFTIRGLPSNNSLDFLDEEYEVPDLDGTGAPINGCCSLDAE
human PDE2A1, sequence (O00408 other isoform, or with tags, fused parts or gaps): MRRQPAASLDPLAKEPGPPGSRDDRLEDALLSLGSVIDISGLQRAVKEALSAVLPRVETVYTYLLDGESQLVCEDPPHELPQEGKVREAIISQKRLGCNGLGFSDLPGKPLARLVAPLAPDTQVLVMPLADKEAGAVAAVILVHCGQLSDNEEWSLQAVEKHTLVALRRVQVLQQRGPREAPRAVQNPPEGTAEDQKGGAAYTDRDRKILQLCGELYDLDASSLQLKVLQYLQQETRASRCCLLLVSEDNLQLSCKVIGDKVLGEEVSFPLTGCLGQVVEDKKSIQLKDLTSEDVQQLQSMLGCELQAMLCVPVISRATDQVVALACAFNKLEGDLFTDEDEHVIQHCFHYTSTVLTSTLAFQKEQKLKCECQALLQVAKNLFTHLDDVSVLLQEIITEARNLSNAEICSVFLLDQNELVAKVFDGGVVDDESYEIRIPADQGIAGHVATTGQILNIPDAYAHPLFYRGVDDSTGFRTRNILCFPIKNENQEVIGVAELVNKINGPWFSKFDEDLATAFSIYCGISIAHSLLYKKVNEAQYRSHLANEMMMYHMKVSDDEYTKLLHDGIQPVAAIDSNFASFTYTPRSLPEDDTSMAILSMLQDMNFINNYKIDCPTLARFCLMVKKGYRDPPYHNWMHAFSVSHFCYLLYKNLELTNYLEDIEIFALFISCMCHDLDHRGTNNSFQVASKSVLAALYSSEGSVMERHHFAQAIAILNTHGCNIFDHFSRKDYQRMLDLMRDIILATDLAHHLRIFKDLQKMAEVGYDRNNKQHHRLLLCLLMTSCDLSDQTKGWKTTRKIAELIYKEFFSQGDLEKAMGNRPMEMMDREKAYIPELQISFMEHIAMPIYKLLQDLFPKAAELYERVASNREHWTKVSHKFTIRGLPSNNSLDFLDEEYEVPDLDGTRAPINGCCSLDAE

Broadly, the Ki is the equilibrium dissociation constant of an inhibitor or competing ligand from its target. For the compound `CC(C)(NC(=O)c1cc(=O)[nH]c(-c2ccccc2)n1)c1ccc(OC(F)(F)F)c(F)c1` [Example 161, N-{1-[3-fluoro-4-(trifluoromethoxy)phenyl]-1-methylethyl}-6-oxo-2-phenyl-1,6-dihydropyrimidine-4-carboxamide], the values for the Ki on Rhesus PDE2A3 (setting [1]) and on human PDE2A1 (setting [2]) were 88 nM and 60 nM, respectively.

As for `Cc1nc(C(=O)N[C@@H](c2ccc(C3CC3)c(F)c2)C(C)C)cc(=O)[nH]1` [Example 621, N-[(1R)-1-(4-cyclopropyl-3-fluorophenyl)-2-methylpropyl]-2-methyl-6-oxo-1,6-dihydropyrimidine-4-carboxamide], the Ki at Rhesus PDE2A3 (setting [3]) was found to be 5.1 nM; on human PDE2A1 (setting [4]), 5.2 nM.

On to `COc1ccc([C@@H](C)NC(=O)c2cc(=O)[nH]c(-c3ncccn3)n2)cc1` [Example 86, N-[(1R)-1-(4-methoxyphenyl)ethyl]-6-oxo-1,6-dihydro-2,2′-bipyrimidine-4-carboxamide], for which the inhibition constant Ki on Rhesus PDE2A3 (setting [1]) amounted to 237 nM; on human PDE2A1 (setting [2]), 199 nM.

With `CC[C@@H](NC(=O)c1cc(=O)[nH]c(Cc2ccc(OC)cc2)n1)c1ccc(OC(F)(F)F)cc1` [Example 485, 2-(4-methoxybenzyl)-6-oxo-N-{(1R)-1-[4-(trifluoromethoxy)phenyl]propyl}-1,6-dihydropyrimidine-4-carboxamide], the inhibition constant Ki came out at 1.9 nM on Rhesus PDE2A3 (setting [3]) and 1.5 nM at human PDE2A1 (setting [4]).

Turning to `CC[C@@H](NC(=O)c1cc(=O)[nH]c(-c2ncccn2)n1)c1ccc(OC(F)(F)F)c(F)c1` [Example 89, N-{(1R)-1-[3-fluoro-4-(trifluoromethoxy)phenyl]propyl}-6-oxo-1,6-dihydro-2,2′-bipyrimidine-4-carboxamide], the Ki at Rhesus PDE2A3 (setting [1]) amounted to 6.4 nM; at Rhesus PDE2A3 (setting [3]), 9.3 nM; on human PDE2A1 (setting [4]), 9.8 nM.

On to `Cc1nc(C(=O)N[C@@H](c2ccc(S(F)(F)(F)(F)F)cc2)C(C)C)cc(=O)[nH]1` [Example 52, 2-methyl-N-{(1R)-2-methyl-1-[4-(pentafluoro-λ^6-sulfanyl)phenyl]propyl}-6-oxo-1,6-dihydropyrimidine-4-carboxamide], for which the Ki on Rhesus PDE2A3 (setting [1]) worked out at 5.1 nM; at Rhesus PDE2A3 (setting [3]) it was 6 nM; on human PDE2A1 (setting [4]) it was 6.4 nM.

Regarding `C[C@@H](NC(=O)c1cc(=O)[nH]c(Cc2ccccc2)n1)c1ccc(C(F)(F)F)cc1` [Example 133, 2-benzyl-6-oxo-N-{(1R)-1-[4-(trifluoromethyl)phenyl]ethyl}-1,6-dihydropyrimidine-4-carboxamide], the Ki at Rhesus PDE2A3 (setting [1]) came to 21 nM; at human PDE2A1 (setting [2]), 20 nM.

Turning to `CC[C@@H](NC(=O)c1cc(=O)[nH]c(C(C)(C)c2ccc(OC)cc2)n1)c1ccc(SC(F)(F)F)cc1` [Example 495, 2-[1-(4-methoxyphenyl)-1-methylethyl]-6-oxo-N-[(1R)-1-{4-[(trifluoromethyl)sulfanyl]phenyl}propyl]-1,6-dihydropyrimidine-4-carboxamide], the Ki is 54 nM on Rhesus PDE2A3 (setting [3]) and 45 nM at human PDE2A1 (setting [4]).

Regarding `Cc1nc(C(=O)N[C@@H](c2ccc(SC(F)(F)F)c(F)c2)C(C)C)cc(=O)[nH]1` [Example 53, N-[(1R)-1-{3-fluoro-4-[(trifluoromethyl)sulfanyl]phenyl}-2-methylpropyl]-2-methyl-6-oxo-1,6-dihydropyrimidine-4-carboxamide], the Ki stood at 3.6 nM on Rhesus PDE2A3 (setting [1]) and 2.8 nM at human PDE2A1 (setting [2]).

On to `COc1ccc([C@@H](C)NC(=O)c2cc(=O)[nH]c(-c3ccccc3)n2)cc1` [Example 347, N-[(1R)-1-(4-methoxyphenyl)ethyl]-6-oxo-2-phenyl-1,6-dihydropyrimidine-4-carboxamide], for which the inhibition constant (Ki) on Rhesus PDE2A3 (setting [1]) amounted to 45 nM; at Rhesus PDE2A3 (setting [3]), 74 nM; on human PDE2A1 (setting [4]), 50 nM.

In the case of `O=C(N[C@@H](c1ccc(SC(F)(F)F)cc1)C1CC1)c1cc(=O)[nH]c(-c2ncccn2)n1` [Example 95, N-[(R)-cyclopropyl{4-[(trifluoromethyl)sulfanyl]phenyl}methyl]-6-oxo-1,6-dihydro-2,2′-bipyrimidine-4-carboxamide], the inhibition constant (Ki) on Rhesus PDE2A3 (setting [1]) is 7.4 nM; on human PDE2A1 (setting [2]), 3.1 nM.

With `CC[C@@H](NC(=O)c1cc(=O)[nH]c(C2CC2)n1)c1ccc(OC(F)(F)F)c(F)c1` [Example 207], the inhibition constant (Ki) at Rhesus PDE2A3 (setting [1]) was found to be 5.8 nM; on human PDE2A1 (setting [2]) it was 2.6 nM.
